Where a name gives a salt, the structure may show the parent alone.
Tests used:
[1] = target: T1, human H3 receptor (Homo sapiens, UniProt Q9Y5N1); test: Human H3 radioligand binding ([3H]-N-alpha-methylhistamine, CHO cell membranes, SPA); details: Table B, binding constant as letter class
T1 construct: expressed in transfected cells
In short: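 CHO cell membranes expressing human H3 (10 μg protein/well) incubated 4 h at room temperature, in the dark, with ~1 nM [3H]-N-alpha-methylhistamine, compounds (0.01 nM-30 μM) and SPA beads in 50 mM Tris HCl pH 7.4, 5 mM MgCl2, 0.1% BSA. Non-specific binding defined with 10 μM clobenpropit.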

[2] = target: T2, rat histamine H3 receptor (Rattus norvegicus, UniProt Q9QYN8); test: Rat H3 radioligand binding ([3H]-N-alpha-methylhistamine, CHO-A3 cell membranes, SPA); details: Table B, binding constant as letter class; read-out: rat H3 Ki
T2 construct: encoding the entire 445-amino-acid rat histamine H3 receptor; expressed in transfected cells
T2 sequence (Q9QYN8 whole entry): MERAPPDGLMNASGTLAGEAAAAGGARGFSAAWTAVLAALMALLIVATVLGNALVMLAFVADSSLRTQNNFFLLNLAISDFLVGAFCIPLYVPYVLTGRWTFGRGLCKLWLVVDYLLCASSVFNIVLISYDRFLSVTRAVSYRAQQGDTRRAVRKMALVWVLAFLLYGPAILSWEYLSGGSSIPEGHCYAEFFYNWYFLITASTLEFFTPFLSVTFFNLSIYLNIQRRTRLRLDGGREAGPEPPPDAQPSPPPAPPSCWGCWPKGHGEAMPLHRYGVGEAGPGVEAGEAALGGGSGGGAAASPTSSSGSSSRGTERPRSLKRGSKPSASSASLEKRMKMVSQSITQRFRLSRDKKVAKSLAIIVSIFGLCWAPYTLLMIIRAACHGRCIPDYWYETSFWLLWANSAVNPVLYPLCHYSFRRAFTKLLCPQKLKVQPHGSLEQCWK
In short: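 Membranes from CHO-A3 cells stably expressing rat H3 (10 μg protein) incubated 4 h at room temperature in 50 mM Tris-HCl pH 7.4, 5 mM MgCl2, 0.1% BSA with ~1 nM [3H]-N-alpha-methylhistamine and compound (0.01 nM-30 μM). Bound radioligand read by scintillation proximity; nonspecific binding with 10 μM clobenpropit.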

T1 sequence (Q9Y5N1 whole entry): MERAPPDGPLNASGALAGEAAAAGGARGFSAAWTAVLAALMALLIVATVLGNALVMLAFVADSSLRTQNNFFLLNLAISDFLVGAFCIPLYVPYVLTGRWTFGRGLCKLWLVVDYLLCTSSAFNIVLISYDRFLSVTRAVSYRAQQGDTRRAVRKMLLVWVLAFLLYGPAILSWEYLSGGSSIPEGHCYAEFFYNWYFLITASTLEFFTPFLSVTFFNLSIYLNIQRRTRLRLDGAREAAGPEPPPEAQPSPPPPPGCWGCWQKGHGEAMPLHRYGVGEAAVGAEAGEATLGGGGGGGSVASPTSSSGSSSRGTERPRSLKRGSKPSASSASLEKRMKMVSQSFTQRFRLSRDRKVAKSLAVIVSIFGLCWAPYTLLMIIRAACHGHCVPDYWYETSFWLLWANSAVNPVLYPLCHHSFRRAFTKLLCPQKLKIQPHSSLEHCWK

Molecule `O=c1ccc(-c2ccc(O[C@@H]3CCN(C4CCC4)C3)cc2)n[nH]1` [Example 161, 6-[4-((R)-1-Cyclobutyl-pyrrolidin-3-yloxy)-phenyl]-2H-pyridazin-3-one] has a Ki [1] greater than 1000 nM and a Ki [2] greater than 1000 nM.

In the case of `O=C1CCC(c2ccc(O[C@@H]3CCN(C4CCCC4)C3)cc2)=NN1` [Example 162, 6-[4-((R)-1-Cyclopentyl-pyrrolidin-3-yloxy)-phenyl]-4,5-dihydro-2H-pyridazin-3-one], the Ki [1] is reported as 501 to 1000 nM and the Ki [2] is reported as greater than 1000 nM.

`O=C1NN=C(c2ccc(OC3CCN(C4CCC4)CC3)cc2)C2CCC12` (stereo not shown) [Example 172, 5-[4-(1-Cyclobutyl-piperidin-4-yloxy)-phenyl]-3,4-diaza-bicyclo[4.2.0]oct-4-en-2-one] gave a Ki [1] of 0.1 to 100 nM and a Ki [2] of 0.1 to 100 nM.

Work on `C[C@@H]1CCCN1CCCOc1ccc(C2=NNC(=O)CC2)cc1` [Example 178, 6-{4-[3-((R)-2-Methyl-pyrrolidin-1-yl)-propoxy]-phenyl}-4,5-dihydro-2H-pyridazin-3-one] yielded a Ki [1] of 0.1 to 100 nM and a Ki [2] of 0.1 to 100 nM.

`C[C@@H]1CCCN1CCCOc1ccc(C2=NN(c3ccccn3)C(=O)CC2)cc1` [Example 183, 6-{4-[3-((R)-2-Methyl-pyrrolidin-1-yl)-propoxy]-phenyl}-2-pyridin-2-yl-4,5-dihydro-2H-pyridazin-3-one] was tested, and the Ki [1] was 0.1 to 100 nM and the Ki [2] was 0.1 to 100 nM.

For `CC1CC(=O)N(c2ccccn2)N=C1c1ccc(OC2CCN(C3CCC3)CC2)cc1` (stereo not shown) [Example 193, 6-[4-(1-Cyclobutyl-piperidin-4-yloxy)-phenyl]-5-methyl-2-pyridin-2-yl-4,5-dihydro-2H-pyridazin-3-one], the Ki [1] was 0.1 to 100 nM and the Ki [2] was 0.1 to 100 nM.

With `Cc1cc(OCCCN2CCC[C@H]2C)ccc1C1=NNC(=O)CC1` [Example 199, 6-{(R)-2-Methyl-4-[3-(2-methyl-pyrrolidin-1-yl)-propoxy]-phenyl}-4,5-dihydro-2H-pyridazin-3-one] the Ki [1] was 0.1 to 100 nM and the Ki [2] was 0.1 to 100 nM.

`Cc1ccc(=O)n(-c2ccc(OCCCN3CCC[C@H]3C)cc2)n1` [Example 201, 6-Methyl-2-{4-[3-((R)-2-methyl-pyrrolidin-1-yl)-propoxy]-phenyl}-2H-pyridazin-3-one] gave a Ki [1] of 0.1 to 100 nM and a Ki [2] of 101 to 500 nM.

Work on `O=c1ccc(-c2ccccc2)nn1-c1ccc(OC2CCN(C3CCC3)CC2)nc1` [Example 203, 2-[6-(1-Cyclobutyl-piperidin-4-yloxy)-pyridin-3-yl]-6-phenyl-2H-pyridazin-3-one] yielded a Ki [1] of 0.1 to 100 nM and a Ki [2] of 0.1 to 100 nM.

Molecule `Cc1onc2c(=O)[nH]nc(-c3ccc(OC4CCN(C5CCC5)CC4)cc3)c12` [Example 205, 4-[4-(1-Cyclobutyl-piperidin-4-yloxy)-phenyl]-3-methyl-6H-isoxazolo[3,4-d]pyridazin-7-one] has a Ki [1] of 101 to 500 nM and a Ki [2] of 101 to 500 nM.

With `Cc1onc2c(=O)[nH]nc(-c3ccc(OC4CCNCC4)cc3)c12` [Example 206, 3-methyl-4-[4-(piperidin-4-yloxy)phenyl]-6h-isoxazolo-[3,4-d]pyridazin-7-one TFA salt] the Ki [1] was greater than 1000 nM and the Ki [2] was greater than 1000 nM.

Molecule `C[C@@H]1CCCN1CCCOc1ccc2c(c1)CCc1cc(=O)[nH]nc1-2` [Example 209, 8-[3-((R)-2-Methyl-pyrrolidin-1-yl)-propoxy]-5,6-dihydro-2H-benzo[h]cinnolin-3-one] has a Ki [1] of 0.1 to 100 nM and a Ki [2] of 0.1 to 100 nM.

`C[C@@H]1CCCN1CCCOc1ccc2c(c1)CCC1CC(=O)NN=C21` (stereo partly shown) [Example 212, 8-[3-(2-Methyl-pyrrolidin-1-yl)-propoxy]-4,4a,5,6-tetrahydro-2H-benzo[h]cinnolin-3-one] showed a Ki [1] of 0.1 to 100 nM and a Ki [2] of 0.1 to 100 nM.

Work on `COc1cc(OCCCN2CCC[C@H]2C)ccc1-c1ccc(=O)[nH]n1` [Example 213, 6-{2-Methoxy-4-[3-((R)-2-methyl-pyrrolidin-1-yl)-propoxy]-phenyl}-2H-pyridazin-3-one] yielded a Ki [1] of 101 to 500 nM and a Ki [2] of 101 to 500 nM.

With `C[C@@H]1CCCN1CCCOc1ccc(-c2ccc(=O)n(-c3ccccn3)n2)cc1` [Example 215, 6-{4-[3-((R)-2-Methyl-pyrrolidin-1-yl)-propoxy]-phenyl}-2-pyridin-2-yl-2H-pyridazin-3-one] the Ki [1] was 0.1 to 100 nM and the Ki [2] was 0.1 to 100 nM.

Work on `C[C@@H]1CCCN1CCCOc1ccc(C2=NNC(=O)C(c3ccccn3)C2)cc1` (stereo partly drawn) [Example 216, 6-{4-[3-((R)-2-Methyl-pyrrolidin-1-yl)-propoxy]-phenyl}-4-pyridin-2-yl-4,5-dihydro-2H-pyridazin-3-one] yielded a Ki [1] of 0.1 to 100 nM and a Ki [2] of 0.1 to 100 nM.

`C[C@@H]1CCCN1CCCOc1ccc(-c2cc(-c3ccccn3)c(=O)[nH]n2)cc1` [Example 217, 6-{4-[3-((R)-2-Methyl-pyrrolidin-1-yl)-propoxy]-phenyl}-4-pyridin-2-yl-2H-pyridazin-3-one] gave a Ki [1] of 0.1 to 100 nM and a Ki [2] of 0.1 to 100 nM.

In the case of `C[C@@H]1CCCN1CCCOc1ccc2c(c1)CCc1n[nH]c(=O)cc1-2` [Example 218, 8-[3-((R)-2-Methyl-pyrrolidin-1-yl)-propoxy]-5,6-dihydro-3H-benzo[f]cinnolin-2-one], the Ki [1] is reported as 0.1 to 100 nM and the Ki [2] is reported as 0.1 to 100 nM.

With `O=C1CCC(c2ccc(OC3CCN(C4CCC4)CC3)cc2F)=NN1` [Example 219, 6-[4-(1-Cyclobutyl-piperidin-4-yloxy)-2-fluoro-phenyl]-4,5-dihydro-2H-pyridazin-3-one] the Ki [1] was 0.1 to 100 nM and the Ki [2] was 0.1 to 100 nM.

Molecule `C[C@@H]1CCCN1CCCOc1ccc(-c2cn[nH]c(=O)c2)cc1` [Example 223, 5-{4-[3-((R)-2-Methyl-pyrrolidin-1-yl)-propoxy]-phenyl}-2H-pyridazin-3-one] has a Ki [1] of 0.1 to 100 nM and a Ki [2] of 0.1 to 100 nM.

`COCn1ncc(-c2ccc(OCCCN3CCC[C@H]3C)cc2C)cc1=O` [Example 230, 2-Methoxymethyl-5-{2-methyl-4-[3-((R)-2-methyl-pyrrolidin-1-yl)-propoxyl]-phenyl}-2H-pyridazin-3-one] gave a Ki [1] of 0.1 to 100 nM and a Ki [2] of 0.1 to 100 nM.

In the case of `Cc1cc(OCCCN2CCC[C@H]2C)ccc1-c1cn[nH]c(=O)c1` [Example 231, 5-{2-methyl-4-[3-((R)-2-methyl-pyrrolidin-1-yl)-propoxyl]-phenyl}-2H-pyridazin-3-one], the Ki [1] is reported as 0.1 to 100 nM and the Ki [2] is reported as 0.1 to 100 nM.

`COCn1ncc(-c2ccc(OCCCN3CCCCC3)cc2C)cc1=O` [Example 232, 2-Methoxymethyl-5-[2-methyl-4-(3-piperidin-1-yl-propoxy)-phenyl]-2H-pyridazin-3-one] gave a Ki [1] of 0.1 to 100 nM and a Ki [2] of 0.1 to 100 nM.

With `COCn1ncc(-c2ccc(OC3CCN(C4CCC4)CC3)cc2C)cc1=O` [Example 234, 5-[4-(1-Cyclobutyl-piperidin-4-yloxy)-2-methyl-phenyl]-2-methoxymethyl-2H-pyridazin-3-one] the Ki [1] was 0.1 to 100 nM and the Ki [2] was 0.1 to 100 nM.

In the case of `COCn1ncc(-c2ccc(OCCCN3CCC[C@H]3C)cc2)c(OC)c1=O` [Example 235, 4-Methoxy-2-methoxymethyl-5-{4-[3-((R)-2-methyl-pyrrolidin-1-yl)-propoxy]-phenyl}-2H-pyridazin-3-one], the Ki [1] is reported as 0.1 to 100 nM and the Ki [2] is reported as 0.1 to 100 nM.

In the case of `COCn1ncc(OC)c(-c2ccc(OCCCN3CCC[C@H]3C)cc2)c1=O` [Example 236, 5-Methoxy-2-methoxymethyl-4-{4-[3-((R)-2-methyl-pyrrolidin-1-yl)-propoxy]-phenyl}-2H-pyridazin-3-one], the Ki [1] is reported as 0.1 to 100 nM and the Ki [2] is reported as 0.1 to 100 nM.

Molecule `COc1cn[nH]c(=O)c1-c1ccc(OCCCN2CCC[C@H]2C)cc1` [Example 237, 5-Methoxy-4-{4-[3-((R)-2-methyl-pyrrolidin-1-yl)-propoxy]-phenyl}-2H-pyridazin-3-one] has a Ki [1] of 0.1 to 100 nM and a Ki [2] of 0.1 to 100 nM.

In the case of `O=c1ccc(-c2ccc(OCCCN3CCOCC3)cc2)n[nH]1` [Example 238, 6-[4-(3-Morpholin-4-yl-propoxy)-phenyl]-2H-pyridazin-3-one], the Ki [1] is reported as greater than 1000 nM and the Ki [2] is reported as greater than 1000 nM.

`C[C@H]1CCCN1CCCOc1ccc(-c2ccc(=O)[nH]n2)cc1` [Example 239, 6-{4-[3-((S)-2-Methyl-pyrrolidin-1-yl)-propoxy]-phenyl}-2H-pyridazin-3-one] gave a Ki [1] of 0.1 to 100 nM and a Ki [2] of 0.1 to 100 nM.

`CCN1N=C(c2ccc(OC3CCN(C4CCC4)CC3)cc2)C2CC2C1=O` (stereo not shown) [Example 250, 5-[4-(1-Cyclobutyl-piperidin-4-yloxy)-phenyl]-3-ethyl-3,4-diaza-bicyclo[4.1.0]hept-4-en-2-one] showed a Ki [1] of 0.1 to 100 nM and a Ki [2] of 0.1 to 100 nM.

With `CC(C)N1N=C(c2ccc(OC3CCN(C4CCC4)CC3)cc2)C2CC2C1=O` (stereo not shown) [Example 251, 5-[4-(1-Cyclobutyl-piperidin-4-yloxy)-phenyl]-3-isopropyl-3,4-diaza-bicyclo[4.1.0]hept-4-en-2-one] the Ki [1] was 0.1 to 100 nM and the Ki [2] was 0.1 to 100 nM.

With `CN1N=C(c2ccc(OC3CCN(C4CCC4)CC3)cc2)C2CC2C1=O` (stereo not shown) [Example 252, 5-[4-(1-Cyclobutyl-piperidin-4-yloxy)-phenyl]-3-methyl-3,4-diaza-bicyclo[4.1.0]hept-4-en-2-one] the Ki [1] was 0.1 to 100 nM and the Ki [2] was 0.1 to 100 nM.

`O=C1C2CC2C(c2ccc(OC3CCN(C4CCC4)CC3)cc2)=NN1c1ccc(F)cc1` (stereo not shown) [Example 253, 5-[4-(1-Cyclobutyl-piperidin-4-yloxy)-phenyl]-3-(4-fluoro-phenyl)-3,4-diaza-bicyclo[4.1.0]hept-4-en-2-one] showed a Ki [1] of 0.1 to 100 nM and a Ki [2] of 0.1 to 100 nM.

For `O=C1C2CC2C(c2ccc(OC3CCN(C4CCC4)CC3)cc2)=NN1CC(F)(F)F` (stereo not shown) [Example 254, 5-[4-(1-Cyclobutyl-piperidin-4-yloxy)-phenyl]-3-(2,2,2-trifluoro-ethyl)-3,4-diaza-bicyclo[4.1.0]hept-4-en-2-one], the Ki [1] was 0.1 to 100 nM and the Ki [2] was 0.1 to 100 nM.

With `CN1N=C(c2ccc(OC3CCN(C4CCCC4)CC3)cc2)C2CC2C1=O` (stereo not shown) [Example 260, 5-[4-(1-Cyclopentyl-piperidin-4-yloxy)-phenyl]-3-methyl-3,4-diaza-bicyclo[4.1.0]hept-4-en-2-one] the Ki [1] was 0.1 to 100 nM and the Ki [2] was 0.1 to 100 nM.
